The test system of assay [1] is Skov-3 cells (human ovarian cancer). Briefly: FACS analysis of cell cycle stage by DNA content (mitotic arrest). The assay is classed as cell-based. The following applies: treated 24 hours, paclitaxel at 10 nM. How it is done:
FACS analysis to determine cell cycle stage by measuring DNA content was performed as follows. Skov-3 cells (human ovarian cancer) were split 1:10 for plating in 10 cm dishes and grown to subconfluence with RPMI 1640 medium containing 5% fetal bovine serum (FBS). The cells were then treated with either 10 nM paclitaxel, the test compound or 0.25% DMSO (vehicle for compounds) for 24 hours. Cells were then rinsed off the plates with PBS containing 5 mM EDTA, pelleted, washed once in PBS containing 1% FCS, and then fixed overnight in 85% ethanol at 4° C. Before analysis, the cells were pelleted, washed once, and stained in a solution of 10 μg propidium iodide and 250 μg of ribonuclease (RNAse) A per milliliter at 37° C. for half an hour. Flow cytometry analysis was performed on a Becton-Dickinson FACScan, and data from 10,000 cells per sample was analyzed with Modfit software.

Assay [2] relates to A549 cells. The following applies: cited from earlier work.

One may read the GI50 as the concentration that inhibits growth by half.

For `CC(=O)O[C@H]1C(=O)[C@@]2(C)[C@H]([C@H](OC(=O)c3ccccc3)[C@]3(O)C[C@H](OC(=O)[C@H](O)[C@@H](NC(=O)c4ccccc4)c4ccccc4)C(C)=C1C3(C)C)[C@]1(OC(C)=O)CO[C@@H]1C[C@@H]2O` [paclitaxel], the “shift of cell population between cell cycle stages (DNA content)” value in assay [1] is “caused a shift in the population of cells from a G0/G1 cell cycle stage (2 n DNA content) to a G2/M cell cycle stage (4 n DNA content)”. For the same molecule, the GI50 in assay [2] is 4 nM.
`O=c1[nH]cc(F)c(=O)[nH]1` [5-fluorouracil]: in assay [2], the GI50 is 1000 nM.
For `NC(=O)NO` [hydroxyurea], the GI50 in assay [2] is 500000 nM.
For `COc1cccc2c1C(=O)c1c(O)c3c(c(O)c1C2=O)C[C@@](O)(C(=O)CO)C[C@@H]3O[C@H]1C[C@H](N)[C@H](O)[C@H](C)O1` [doxorubicin], the GI50 in assay [2] is 63 nM.

These data come from US20040132830A1, “Triphenylmethane kinesin inhibitors” (priority 2001, published 2004).
